Test results as given in patent US5519042A, “Method of treating hyperproliferative vascular disease” (priority 1994, dated 1996).

Tested on: injured carotid arteries
Assay: Effect on intimal thickening in injured carotid arteries (balloon catheter injury, morphometry)
Assay type: in vivo, male Sprague-Dawley (SD) rats
Conditions: for Intima Percent (±S.E.): mean ± standard error, untreated injured control 46.06 ± 16.36
Protocol: The effect of N-(4-trifluoromethylphenyl)-5-methylisoxazole-carboxamide (compound I) on hyperproliferative vascular disease was established in an in vivo standard pharmacological test procedure that emulates the hyperproliferative effects observed in mammals that are undergoing intimal smooth muscle proliferation and are therefore developing restenosis. Cyclosporin A was also evaluated in these test procedure for the purpose of comparison.
Compound 1 was also evaluated in an in vivo standard pharmacological test procedure that emulates the vascular injury suffered and restenosis that develops following percutaneous transluminal coronary angioplasty in humans.
Intimal smooth muscle proliferation was produced by balloon catheter injury to the left carotid artery of groups of 6, male Sprague-Dawley (SD) rats. […] A balloon catheter (2 French Fogarty, Edwards Laboratories, Santa Anna, Calif.) was passed through the external carotid artery into the aorta. The balloon was then inflated with an amount of water sufficient to distend the common carotid artery and was then pulled back to the external carotid artery. The inflation and pull back were repeated three times. This procedure leads to complete denudation of the endothelium throughout the common carotid artery, and also some injury typically occurs to the medial smooth muscle cells.
During a 17-days period (3 days before operation to 13 days after operation), these rats were divided into 2 groups of 6 animals and treated daily with compound 1 (20 mg/kg/day, intraperitoneal (i.p.)) or cyclosporin A (3 mg/kg/day; i.p.).
An injured group not treated with any drug was used as an injured control to establish the amount of intimal thickening in the absence of treatment. The right carotid was used as an uninjured control in all groups.
After the 14 day post-operative period, the rats were sacrificed, the carotids removed. The mean areas of the intima, media and total blood vessel wall were measured by morphometry. The injured artery was also examined using histopathologic assays. Results are presented as an intima percent, expressed as follows: [formula]

Compound	decrease in the mean percentage intimal thickening compared with the untreated injured control group (20 mg/kg/day i.p.) [%]	Intima Percent (±S.E.) (20 mg/kg/day i.p., 3 days before to 13 days after operation) [%]	reduction in intimal thickening (in words) (3 mg/kg/day i.p.)	Intima Percent (±S.E.) (3 mg/kg/day i.p., 14 days) [%]
Cc1oncc1C(=O)Nc1ccc(C(F)(F)F)cc1 [Compound 1, N-(4-trifluoromethylphenyl)-5-methylisoxazole-4-carboxamide]	83	7.88 ± 7.88		
Cyclosporin A			failed to produce any meaningful reduction in intimal thickening	39.39 ± 26.06
